pKi: −log10 of the molar value.
Biological target: T1, Beta-1,4-galactosyltransferase 1 (Bos taurus, UniProt P08037)
T1 sequence (P08037 whole entry): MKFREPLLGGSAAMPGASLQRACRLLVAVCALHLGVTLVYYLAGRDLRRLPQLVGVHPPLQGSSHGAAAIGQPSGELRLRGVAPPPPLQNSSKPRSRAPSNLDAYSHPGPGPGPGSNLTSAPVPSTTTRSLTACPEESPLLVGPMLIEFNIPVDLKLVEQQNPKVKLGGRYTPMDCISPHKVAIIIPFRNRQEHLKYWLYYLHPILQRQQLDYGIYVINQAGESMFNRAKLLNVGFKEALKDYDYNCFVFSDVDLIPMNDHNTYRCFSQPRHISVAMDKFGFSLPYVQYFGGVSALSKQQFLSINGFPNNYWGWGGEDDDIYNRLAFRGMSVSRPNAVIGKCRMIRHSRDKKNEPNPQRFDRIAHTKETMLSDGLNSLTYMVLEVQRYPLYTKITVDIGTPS
Assay: Inhibition constant of compound was tested against Beta-galactosyltransferase from bovine milk

pKi | Compound
2.84 | O=P(O)(O)CC1=CC(O)C(O)C(CO)O1 (stereo not given)
3.78 | O=c1ccn(C2O[C@H](COP(=O)(O)OP(=O)(O)C3OC(O)C(O)C(O)C3O)[C@@H](O)[C@H]2O)c(=O)[nH]1 (stereo not given in full)
4.01 | O=c1ccn(C2O[C@H](COP(=O)(O)CP(=O)(O)OC3OC(O)C(O)C(O)C3O)[C@@H](O)[C@H]2O)c(=O)[nH]1 (stereo not given in full)
4.21 | O=c1ccn(C2O[C@H](COP(=O)(O)OP(=O)(O)CC3=CC(O)C(O)C(CO)O3)[C@@H](O)[C@H]2O)c(=O)[nH]1 (stereo not given in full)
3.89 | O=c1ccn([C@@H]2O[C@H](COP(=O)(O)OP(=O)(O)OP(=O)(O)O)[C@@H](O)[C@H]2O)c(=O)[nH]1 [URIDINE TRIPHOSPHATE]

— ChEMBL document CHEMBL1150445, “A new galactosyl transferase inhibitor” (Bioorg Med Chem Lett, 1993)
